Square brackets hold non-standard residues; d marks the D form. Peptide text beside a SMILES is read from it. * marks the point of attachment. Cbz = O=C(OCc1ccccc1)*; Dap = NC[C@H](N)C(=O)O
Columns and labels:
[1] = test system: Human rhinovirus sp.; experiment: Compound was evaluated for the inhibition of human rhinovirus 3C protease (3CP); type: functional, organism-based
[2] = test system: Human rhinovirus sp.; experiment: Compound was evaluated for in vitro effective concentration against HRV serotype-14 (HRV-10); type: functional, organism-based
[3] = test system: Human rhinovirus sp.; experiment: Compound was evaluated for in vitro effective concentration against HRV serotype-14 (HRV-14); type: functional, organism-based
[4] = test system: Human rhinovirus sp.; experiment: Compound was evaluated for in vitro effective concentration against HRV serotype-14 (HRV-1A); type: functional, organism-based
[5] = test system: Human rhinovirus sp.; experiment: Compound was evaluated for in vitro cytotoxic concentration against HRV serotype-14 (HRV-14); type: functional
[6] = test system: Human rhinovirus sp.; experiment: Compound was evaluated for in vitro cytotoxic concentration against HRV serotype-14 (HRV-10); type: functional
[7] = test system: Human rhinovirus sp.; experiment: Compound was evaluated for in vitro cytotoxic concentration against HRV serotype-14 (HRV-1A); type: functional
[8] = test system: Human rhinovirus sp.; experiment: Compound was evaluated for the inhibition of human rhinovirus 3C protease (3CP); No inhibition; type: functional, organism-based

**Q.** Which results are given for `Cc1cc(C(=O)N[C@H](C(=O)N[C@@H](Cc2ccc(F)cc2)C(=O)N[C@@H](C[C@@H]2CCNC2=O)C(=O)c2nc3ccccc3s2)C(C)C)no1`?
**A.** Ki [1]: 0.0045 µM; EC50 [2]: 0.25 µM; EC50 [3]: 0.34 µM; EC50 [4]: 0.34 µM; CC50 [5]: 250 µM; CC50 [6]: 250 µM; CC50 [7]: 250 µM

**Q.** What does the source list for `CC(C)C[C@H](NC(=O)OCc1ccccc1)C(=O)N[C@@H](Cc1ccccc1)C(=O)N[C@@H](C[C@@H]1CCNC1=O)C(=O)c1ccccn1`?
**A.** Ki [1]: 0.17 µM; EC50 [3]: 4 µM; CC50 [5]: 200 µM

**Q.** What does the source list for `CC(=O)NC[C@@H](C=O)NC(=O)[C@H](Cc1ccccc1)NC(=O)[C@H](CC(C)C)NC(=O)OCc1ccccc1` (Cbz-Leu-Phe-[Dap](Ac)-aldehyde)?
**A.** Ki [1]: 0.006 µM; EC50 [3]: 2.4 µM

**Q.** How did the EC50 [3] turn out when `CC(C)C[C@H](NC(=O)OCc1ccccc1)C(=O)N[C@@H](Cc1ccccc1)C(=O)N[C@@H](CCC(N)=O)C(O)c1nc2ccccc2s1` (stereo partly specified) was run?
**A.** 32 µM

**Q.** What about the CC50 [5] of the same compound?
**A.** 80 µM

**Q.** What about the Ki [8] of the same compound?
**A.** Not Active

**Q.** Which results are given for `CC(C)C[C@H](NC(=O)OCc1ccccc1)C(=O)N[C@@H](Cc1ccccc1)C(=O)N[C@@H](C[C@@H]1CCNC1=O)C(=O)c1nccs1`?
**A.** Ki [1]: 0.7 µM; EC50 [3]: 7.9 µM; CC50 [5]: 240 µM

**Q.** How did the Ki [1] turn out when `CC(C)C[C@H](NC(=O)OCc1ccccc1)C(=O)N[C@@H](Cc1ccccc1)C(=O)N[C@@H](C[C@@H]1CCNC1=O)C(O)c1nc2ccccc2s1` (stereo partly specified) was run?
**A.** 34 µM

**Q.** What about the EC50 [3] of the same compound?
**A.** 7.9 µM

**Q.** What about the CC50 [5] of the same compound?
**A.** 63 µM

**Q.** How did the Ki [1] turn out when `CC(C)CC(NC(=O)OCc1ccccc1)C(=O)N[C@@H](Cc1ccccc1)C(=O)NC(CC1CCNC1=O)C(=O)c1nc2ccccc2s1` (stereo partly specified) was run?
**A.** 0.065 µM

**Q.** And the EC50 [3]?
**A.** 3.2 µM

**Q.** What about the CC50 [5] of the same compound?
**A.** > 320 µM

**Q.** Which Ki [1] does the source give for `CC(C)C[C@H](NC(=O)OCc1ccccc1)C(=O)N[C@@H](Cc1ccccc1)C(=O)N[C@@H](C[C@@H]1CCNC1=O)C(=O)c1ccccc1` here?
**A.** 3.2 µM

**Q.** And the EC50 [3]?
**A.** > 10 µM

**Q.** And the CC50 [5]?
**A.** > 10 µM

**Q.** `CC(=O)NC[C@H](NC(=O)[C@H](Cc1ccccc1)NC(=O)[C@H](CC(C)C)NC(=O)OCc1ccccc1)C(=O)c1nc2ccccc2s1` was tested. Which Ki [1] did it give?
**A.** 1.7 µM

**Q.** What about the EC50 [3] of the same compound?
**A.** > 25 µM

**Q.** What about the CC50 [5] of the same compound?
**A.** 25 µM

**Q.** How did the Ki [1] turn out when `CC(C)C[C@H](NC(=O)OCc1ccccc1)C(=O)N[C@@H](Cc1ccccc1)C(=O)N[C@@H](C[C@@H]1CCNC1=O)C(=O)c1cc2ccccc2s1` was run?
**A.** 4.7 µM

**Q.** And the EC50 [3]?
**A.** > 10 µM

**Q.** What about the CC50 [5] of the same compound?
**A.** > 10 µM

**Q.** What does the source list for `CC(C)C[C@H](NC(=O)OCc1ccccc1)C(=O)N[C@@H](Cc1ccccc1)C(=O)N[C@@H](CCC(N)=O)C(=O)c1nc2ccccc2s1`?
**A.** Ki [1]: 3.5 µM; EC50 [3]: 17 µM; CC50 [5]: > 100 µM
